# How the values were obtained:
# [1] = test system: rat model of myocardial ischemia; assay: Rat model of myocardial ischemia and reperfusion; assay type: in vivo, Sprague-Dawley rats; conditions: given 15 minutes before occlusion; 45 minutes occlusion, 4 hours reperfusion
# Source text: A rat model of ischemia and reperfusion was used to test the ability of compounds to reduce the volumes of infarction is considered a measure of their potential as cardioprotectors.
# The following model of myocardial infarction and heart failure was used to test the ability of compounds to reduce the volumes of infarction is considered a measure of their potential as cardioprotectors.
# The methods used are essentially as described in Leor and Kloner (Leor and Klonner, Am. J Cardiol. 75:1292–3 1995). The experiment was performed in a masked fashion. In brief, Sprague-Dawley rats were given either vehicle or PRS-211,095 15 minutes before occlusion. They were subjected to 45 minutes of coronary occlusion and 4 hours of reperfusion, after which the coronary artery was reoccluded and 0.25 ml of Unisperse™ dye was injected IV to determine area of risk (AR). The rats were euthanized and hearts were analyzed as to infarct size using a 1% solution of triphenylteuazolium chloride for 15 minutes at 37° C. The area of necrosis (AN) in each heart was expressed as a percentage of the area at risk. This was multiplied by the weight of each slice to obtain the mass of tissue at risk and necrosis.
# kainic acid binding = assay: Kainic acid binding to rat forebrain membranes
# [2] = test system: MPTP-mouse model of Parkinson's disease; assay: MPTP model of Parkinson's disease, TH-IR neurons in SNpc; assay type: in vivo, C57/BL mice; conditions: seven days after MPTP
# Protocol: MPTP-induced model of Parkinson's Disease (PD) in mice is used to evaluate the value of the novel PRS-211 compounds as therapeutic agents for PD.
# The MPTP-mouse model of Parkinson's disease is used to test the efficacy of the compounds to prevent the onset of PD symptoms.
# The protocol is based on Liberatore et al. (Liberatore, Jackson-Lewis, Vukosavic, Mandir, Vila , McAuliffe, Dawson, Dawson and Przedborski, Nature Medicine 5:1403–9, 1999).
# The treatment groups are as follows: • Vehicle 5 ml/kg IP once just before MPTP administration. • Dexanabinol or analog 10 mg/kg IP once just before MPTP administration. • Dexanabinol or analog 20 mg/kg IP once just before MPTP administration. • Dexanabinol or analog 20 mg/kg IP once just before MPTP administration+additional dose 24 hours later.
# Seven days after MPTP administration the mice were euthanized and their brains removed cut and stained using an antiserum to tyrosine hydroxylase (TH-IR), the rate limiting enzyme in monoamainergic neurons. Attention was focused on the Substantia nigra, pars compacta (SNpc), which are comprise of dompaminergic neurons that project to the striatum. It is these neurons that undergo degeneration in Parkinson's Disease. MPTP acts as a specific neurotoxin for these neurons, and the aim was to determine whether MPTP-induced nerve degeneration could be ameliorated by Dexanabinol at 10 (D-10), 20 (D-20) or 30 (D-30) mg/kg, or 2 injections of Dexanabinol at 20mg/kg (D-20×2) relative to vehicle alone (V).
# The rescue effect of the various treatments was calculated by comparing the number of the TH-IR cells in each group relative to that in animals treated with MPTP alone, which was arbitrarily assigned a value of zero.
# cannabimimetic activity = conditions: doses several thousand times higher than the ED50 of HU-210; cited from earlier work
# transient MCAo in rats = assay: Transient middle cerebral artery occlusion (MCAo), infarct size evaluation; assay type: in vivo
# Source text: The middle cerebral artery is the cerebral blood vessel most susceptible to stroke in humans. In animals, coagulation, permanent ligation or permanent placement of an occluding thread ink the artery produces a permanent focal stroke affecting the MCA territory. Transient ligation or occlusion results in transient focal stroke. Both transient and permanent focal strokes result in varying degrees of edema and infarction in the affected brain regions. The ability of compounds to reduce the volumes of edema and infarction is considered a measure of their potential as anti-stroke treatment.
# • a. Male rats (8/treatment group) 320–380 gr. (Harlan Israel). • b. Halothane (Rhone Poulenc France) • c. Pentobarbitone (Pental Veterinary, CTS Israel). • d. Poly-L-Lysine (Sigma, USA). • e. Silk suture material 3-0 and 4-0. • f. Nylon (Polyamid) suture material 3-0. Four cm pieces were cut and positioned in a solution of 1% Poly-L-Lysine for 1 minute and dried in an oven (60 ° C.) for 60 minutes. The tip of each piece was rounded under a flame. • g. Saline (Teva Medical). • h. Blank cremophor ethanol cosolvent (Pharmos). • i. Dexanabinol in cremophor ethanol cosolvent 50 mg/ml. (Both Dexanabinol and its vehicle were diluted in saline prior to drug administration. • j. Analogs PRS-211,092, PRS-211,095, PRS-211,128 PRS-211,132 and PRS-211,220 in cremophor ethanol cosolvent, 50 mg/ml. • k. The analogs were diluted in saline prior to drug administration. Methods Transient MCAo
# a. Surgical details of the MCAO method used for testing dexanabinol analogs, are presented in Belayev, et al., (Belayev, Busto, Weizhao, and Ginsberg, Stroke 26:2313–2319, 1995) which is incorporated herein in its entirety by reference.
# b. Two hours after the start of MCAo, the animals were reanesthetized with halothane, the neck wound was re-opened and the nylon thread pulled out of the Internal carotid artery (ICA). The skin wound was then closed with 3-0 silk suture material and the animals allowed to recover from the anesthesia.
# c. Three sets of animals were tested. In the first test immediately (2+0 hours) before thread removal the animals were injected IV with either analogs PRS 211,095, PRS 211,128, PRS 211,132, or Dexanabinol (PRS 211,007) each at a dosage of 5 mg/kg. One group of animals was treated with 5mi/kg vehicle alone. In another group, the animals subjected to “sham” operation, the suture was passed into the ICA, as described above, but immediately withdrawn. […] Laser Doppler Flow (LDF) determined the success of MCAo—a drop of more then 50% in cerebral blood flow was considered as a sign of successful MCAO. […]
# A detailed investigation of neurological performance was carried out on the first, third and the 7th day after the MCAo. […] Animals were scored according to their performance: […]
compound,measurement,setting,value
"CCCCCCC(C)(C)c1cc(O)c2c(c1)OC(C)(C)C1CC=C(CSc3ncc[nH]3)CC21 (single isomer, unassigned; (+)) [211,092-000]","infarct size (AN/AR, AN/LV), FIG. 13",[1],clear decrease in infarct size
"CCCCCCC(C)(C)c1cc(O)c2c(c1)OC(C)(C)[C@H]1CC=C(CO)CC21 (stereo partly drawn) [211,007-000, 1,1 dimethyl heptyl-(3S,4S)-7-hydroxy-Δ^6-tetrahydrocannabinol]",inhibition of kainic acid binding,kainic acid binding,unable to inhibit
same,TH-IR SNpc (rescue effect relative to MPTP alone = 0),[2]; 10 mg/kg IP,−7.85
same,TH-IR SNpc (rescue effect relative to MPTP alone = 0),[2]; 20 mg/kg IP,28.52
same,TH-IR SNpc (rescue effect relative to MPTP alone = 0),[2]; 30 mg/kg IP,22.73
same,TH-IR SNpc (rescue effect relative to MPTP alone = 0),[2]; 2 injections at 20 mg/kg,8.5
same,cannabimimetic activity (in words),cannabimimetic activity,inactive as a cannabimimetic
"CCCCCCC(C)(C)c1cc(O)c2c(c1)OC(C)(C)C1CC=C(Cn3ccnc3)CC21.Cl (single isomer, unassigned; (+)) [211,095-000, (+)-(3S ,4S )-6,6-Dimethyl-(1,1-dimethylheptyl)-1-hydroxy-9-(imidazolomethyl)-6a,7,10,10a-tetrahydro-6H-dibenzo[b,d]pyran]",Behavioral/neurological outcome,"transient MCAo in rats; posture and flexion reflex, days 1, 3, 7 after MCAo",fewer neurological deficits and recovered faster
same,Mortality rate,"transient MCAo in rats; transient MCAo, 5 mg/kg IV at 2+0 hours",No mortality
same,reduction of infarct size,"transient MCAo in rats; transient MCAo, one week after the ischemic insult",60%

# — US7235584B2, “Non-psychotropic cannabinoids” (Pharmos Corporation, priority 2000, dated 2007)
